Numbers after ± are expanded uncertainties.
Settings: 101.33 kPa, Liquid

SMILES	mass density (273.15 K) [kg/m3]	mass density (278.15 K) [kg/m3]	mass density (283.15 K) [kg/m3]	mass density (288.15 K) [kg/m3]	mass density (293.15 K) [kg/m3]	mass density (298.15 K) [kg/m3]	mass density (303.15 K) [kg/m3]	mass density (308.15 K) [kg/m3]	mass density (313.15 K) [kg/m3]	mass density (318.15 K) [kg/m3]	mass density (323.15 K) [kg/m3]	mass density (328.15 K) [kg/m3]	mass density (333.15 K) [kg/m3]	mass density (338.15 K) [kg/m3]	mass density (343.15 K) [kg/m3]	mass density (348.15 K) [kg/m3]	mass density (353.15 K) [kg/m3]	mass density (358.15 K) [kg/m3]
CCCCCCC [heptane]	700.67 ± 0.62	696.57 ± 0.62	692.4 ± 0.63	688.2 ± 0.64	683.99 ± 0.64	679.75 ± 0.65	675.49 ± 0.66	671.19 ± 0.66	666.87 ± 0.67	662.52 ± 0.68	658.13 ± 0.68	653.71 ± 0.69	649.24 ± 0.7	644.74 ± 0.71	640.19 ± 0.71	635.6 ± 0.72	630.95 ± 0.73	626.26 ± 0.74
CCCCC [pentane]	645.5 ± 0.72	640.7 ± 0.72	635.9 ± 0.73	631.04 ± 0.74	626.12 ± 0.74	621.14 ± 0.75	616.11 ± 0.76	611.01 ± 0.77	–	–	–	–	–	–	–	–	–	–
CCCCCC [hexane]	677.18 ± 0.66	672.79 ± 0.67	668.37 ± 0.67	663.91 ± 0.68	659.42 ± 0.69	654.89 ± 0.69	650.33 ± 0.7	645.73 ± 0.71	641.08 ± 0.72	636.38 ± 0.72	631.64 ± 0.73	626.84 ± 0.74	621.99 ± 0.75	617.07 ± 0.75	–	–	–	–
